Assay results from PubChem BioAssay AID179 (DTP/NCI, 2004).
“And” between values parts separate entries of the source, which are not always exact repeats. Identical values can stand only once. The source made the active and inactive calls.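 The calls were made as follows: active = compounds giving half or more protection of infected cells from virus-caused growth loss, again on retest; inactive = the rest.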

Tested on: CEM cells HIV-1 protection, formazan growth assay
Experiment: NCI AIDS Antiviral Assay
Conditions: for IC50: measured here: growth of uninfected CEM cells
In short: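 Human CEM cells, uninfected and HIV-1-infected, exposed to five drug concentrations; growth measured by soluble formazan assay and scored as percent protection from infection, with protecting compounds retested.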

| Structure (SMILES) | EC50 | IC50 [µM] | outcome |
| --- | --- | --- | --- |
| Cc1ccc(OCCn2cc(Nc3ccccc3)c(=O)[nH]c2=O)cc1 | > 200 µM | > 200 | – |
| CCC[CH2][Sn]([CH2]CCC)([O]C(=O)c1cccnc1SC)[O]C(=O)c1cccnc1SC | > 12.6 µM | 9.12 | – |
| O=C(Nc1cccc(NC(=O)c2nn[nH]n2)n1)c1nn[nH]n1 | > 200 µM | > 200 | – |
| [N-]=[N+]=Nc1ccccc1Oc1ccccc1 | 58.9 µM | 89.1 | – |
| COc1ccc2c(c1)OCCN(C)OC2c1ccccc1 (stereo unspecified) | > 200 µM | > 200 | – |
| CCOc1ccc(/C=N/NC(=O)C(=O)N/N=C/c2ccc(OCC)c(OCC)c2)cc1OCC | > 200 µM | > 200 | – |
| O=C(Nc1ccccc1)c1cc(S(=O)(=O)N2CCNC2=O)c(S)cc1Cl | 112 µM | 132 | – |
| CN(C)CCCc1cccc2[nH]c3c(c12)CN(C)CC3 | > 200 µM | 126 | – |
| CCCNC(=O)c1cc2ccccc2cc1C(=O)OC | > 5.37 µM | > 5.37 | – |
| NC(=S)N/N=C1/CCCC2CCCC[C@@H]12 (stereo partly specified) | > 200 µM | > 200 | – |
| Nc1ncnc2c1ncn2C1OC(CO)C(O)C(O)C1O (stereo unspecified) | > 200 µM | > 200 | – |
| N/C(=N/N=C/c1cccnc1)NO | – | – | inactive |
| C/C=N\n1c(C)c(C#N)c(C#N)c1N | > 200 µM | > 200 | – |
| O=C1CC(c2ccc(Cl)cc2)C2(C(=O)NC(=O)NC2=O)C(c2ccc(Cl)cc2)C1 (stereo unspecified) | > 75.9 µM | 34.7 | – |
| CC(C)(C)[Si](OC[C@H]1OC(=O)[C@@H]2CN(Cc3ccccc3)C[C@H]12)(c1ccccc1)c1ccccc1 | > 7.76 µM | > 7.76 | – |
| CCCCCc1cc(O)c2c3c(c(=O)oc2c1)CP(=O)(c1ccccc1)CC3 (stereo unspecified) | > 25.1 µM | 19.1 | – |
| COc1ccc(Nc2c3sc4cc(OC)ccc4nc-3c3ccccc3c2=O)cc1 | > 100 µM | > 100 | – |
| CCSSC12CCCN1C(=O)C1CCCN1C2=O (stereo unspecified) | > 200 µM | 15.8 | – |
| CCOC(=O)C(Cc1ccc2c(c1)CCC2)Cc1ccc2c(c1)CCC2 | > 200 µM | 1.62 | – |
| FC(F)(F)c1ccc(C=NC23CC4CC(CC(C4)C2)C3)cc1 | > 61.7 µM | > 61.7 | – |
| c1ccc2c(c1)ncn1nnnc21 | > 955 µM | 501 | – |

| Structure (SMILES) | EC50 | IC50 [µM] | outcome |
| --- | --- | --- | --- |
| Nc1nc(SCCc2ccccc2)nc2nc3c(c(-c4ccccc4)c12)CCCC3 | > 200 µM | > 200 | – |
| CC(C)(C)N1C(=O)N=[N+](/C(=C(\c2ccccc2)n2nc([O-])n(C(C)(C)C)c2=O)c2ccccc2)C1=O | > 100 µM | > 100 | – |
| C[C@]12CCC3[C@@H](CC[C@@H]4c5nonc5CC[C@]34C)C1CC[C@@H]2O (stereo partly specified) | > 214 µM | > 214 | – |
| N#CC(/C(CCC(=O)Nc1ccc(Cl)cc1)=N/NC(=O)c1cc2ccccc2cc1O)c1ccccc1 (stereo unspecified) | > 51.3 µM | 12.6 | – |
| O=C1C2=Cc3ccccc3OC2(O)Oc2ccc(O)cc21 (stereo unspecified) | > 200 µM | 50.1 | – |
| CCC1NC(=O)C1NC(=O)OC (stereo unspecified) | – | – | inactive |
| CCN(CCO)CCNc1ccc(C)c2sc3ccccc3c(=O)c12 | > 200 µM | 2.88 | – |
| CC(=O)OC12c3ccccc3-c3ccccc3C1C1C(=O)N(C)C(=O)C12Cl (stereo unspecified) | > 67.6 µM | > 67.6 | – |
| O=[N+]([O-])c1cc(I)cc(/C=N/NS(=O)(=O)c2ccc(Cl)cc2)c1O | > 372 µM | 66.1 | – |
| C[N+](C)(C)CCOP(=O)(O)OP(=O)([O-])OCC1CCC(n2ccc(N)nc2=O)O1 (stereo unspecified) | 0.575 µM and 0.178 µM | > 200 | – |
| COC(=O)C1=C(N)C2=C(N)Oc3ccccc3C2CC1=C(C#N)C#N (stereo unspecified) | > 200 µM | 47.9 | – |
| CC(O)(P(=O)(O)O)P(=O)(O)OCC(O)CN1CCOCC1 (stereo unspecified) | > 100 µM | > 100 | – |
| O=[N+]([O-])C1=C(c2ccccc2)SC([N+](=O)[O-])=C(c2ccccc2)S1 | > 200 µM | 14.8 | – |
| CCN1CCC(O)(c2ccc(O)cc2)C(C(=O)c2ccc(O)cc2)C1 (stereo unspecified) | > 16.2 µM | > 16.2 | – |
| CCN(CC)C(=O)C/C(C)=N/NC(=O)c1ccncc1 | > 93.3 µM | > 93.3 | – |
| CN(CCO)CC(=O)CC(O)(C(F)(F)F)C(F)(F)F | > 200 µM | 39.8 | – |
| CCN(CC)CC(=O)Nc1cc(Cl)ccc1C | > 200 µM | > 200 | – |
| COc1cc(C(=O)C/C(CCC(=O)Nc2ccccc2[N+](=O)[O-])=N\NC(=O)C(N)=O)ccc1O | > 145 µM | > 145 | – |
| OC1C2CCCCN2C[C@@H](O)[C@H]1O (stereo partly specified) | > 200 µM | > 200 | – |
| CCN(CC)C(=O)Cc1[nH][nH]c(=O)c1C(=O)N(CC)CC | > 851 µM | > 851 | – |
| Cc1cc2nnn(C3CCCCO3)c2cc1C (stereo unspecified) | > 200 µM | 174 | – |

| Structure (SMILES) | EC50 | IC50 [µM] | outcome |
| --- | --- | --- | --- |
| CO/C=C/CCCO | > 2140 µM | > 2140 | – |
| COc1ccc(CN2CCCN(Cc3ccc(OC)cc3OC)C2c2cc(Cl)cc(Cl)c2O)c(OC)c1 | > 200 µM | 34.7 | – |
| CC(=O)Nn1cnc(C(=N)C#N)c1N | > 200 µM | > 200 | – |
| COc1cccc(C2c3cc4c(cc3OC(Nc3ccccc3)C2C)OCO4)c1OC (stereo unspecified) | > 200 µM | 2.95 | – |
| O=C(/C=C(\N=P(c1ccccc1)(c1ccccc1)c1ccccc1)C(F)(F)C(F)(F)C(F)(F)C(F)(F)C(F)(F)C(F)(F)C(F)(F)F)c1ccccc1 | > 200 µM | > 200 | – |
| Cc1ccnc(NC(=S)Nc2cc(C)ccn2)c1 | > 200 µM | 135 | – |
| CCCOc1csc([C@H]2CCC3[C@@H]4CC=C5C[C@@H](O)CC[C@]5(C)C4CC[C@@]32C)n1 (stereo partly specified) | > 12 µM | > 12 | – |
| CC(=O)Nc1ccc(-c2nnc(SCC(=O)Nc3cccc([N+](=O)[O-])c3)o2)cc1 | > 45.7 µM | 7.76 | – |
| CC(=O)OC[C@]12[C@H](OC(C)=O)[C@H](OC(C)=O)[C@@H]3C(OC(C)=O)[C@@]14OC3(C)COC(=O)c1cccnc1CCC(C)C(=O)OC([C@H](O)[C@@H]2OC(=O)c1ccccc1)[C@]4(C)O (stereo partly specified) | – | – | inactive |
| CN1c2ccccc2NP1(=S)Oc1ccccc1 (stereo unspecified) | > 93.3 µM | > 93.3 | – |
| O=[N+]([O-])c1ccc(S(=O)(=O)c2ccc([N+](=O)[O-])cc2C(F)(F)F)c(C(F)(F)F)c1 | – | – | inactive |
| O=C(Cc1nc(-c2ccccc2)cc(=O)n1-c1ccccc1Cl)c1ccncc1 | > 1.35 µM | > 1.35 | – |
| COC(=O)C(Cc1nc2ccccc2[nH]c1=O)/C(=N\NC(C)(C)C)C(=O)Nc1c(C)cc(Br)cc1C (stereo unspecified) | > 64.6 µM | 47.9 | – |
| O=C1C(Br)=C(Br)C(=O)c2ccc(=O)ccc21 | > 55 µM | 9.77 | – |
| CCOC(=O)C(=O)CC1=NC2CCCCC2N(C)C1=O (stereo unspecified) | > 200 µM | > 200 | – |
| CCOC(=O)c1c[nH]c2cc(OCC3CC3)c(OCC3CC3)cc2c1=O | > 200 µM | > 200 | – |
| O=C(O)C1C2CC3CC2CC31 (stereo unspecified) | – | – | inactive |
| N#CC12C(=O)N3C(=NC(c4ccccc4)NC3c3ccccc3)C1(C#N)C(c1ccccc1)NC1=C2CCCC1 (stereo unspecified) | > 200 µM | > 200 | – |
| CC(=O)O[C@H]1CCN2C(=O)C=CC(OCc3ccccc3)C12 (stereo partly specified) | > 832 µM | 794 | – |
| O=C1Sc2cc([N+](=O)[O-])ccc2C(=O)N2CSCC12 (stereo unspecified) | > 50.1 µM | > 50.1 | – |
| CC(C)C1=CC2=C[C@H](O)[C@H]3C(C)(C)CCC[C@]3(C)C2=C(O)C1=O | > 20 µM | 1.62 | – |
